Patent US10329303B2, “Heterocyclic inhibitors of monocarboxylate transporter” (THE SCRIPPS RESEARCH INSTITUTE, priority 2015, dated 2019)
pEC50: −log10 of the molar value. Entries after “also recorded” stand apart in the source; their conditions may differ.

Experiments:
[1] = Mouse xenograft study, animal body weight; type: in vivo; details: Raji xenograft mice, 30 mg/kg daily, over the course of the study
Description: (§1) Protocols follow those described in the literature.^4 Mice were transplanted with cultured tumor cells and, after an incubation period (typically 10 days), mice were left untreated or were treated daily with a 30 mg/kg dose of the test compound. Tumor volumes were measured with calipers over ˜20 days of treatment. Tumors were excised and weighed at the end of treatment. In two experiments using Raji Burkitt's lymphoma cells^4, the compounds studied were the product of example 9 (FIG. 3), code named SR-11105, and the product of example 21 (FIG. 4), code named SR-13779.

[2] = system: Raji (Burkitt's) lymphoma cells; assay: MTT assay for 4-day viability of Raji (Burkitt's) lymphoma cells; type: cell-based; details: Homo sapiens, 96 h, Raji cells (highly express MCT1), read-out: approximate potency (EC50)
Excerpt: Specific Examples 1-52 of compounds of the invention, with estimated EC50 values determined using an MTT assay for 4-day viability of Raji (Burkitt's) lymphoma cells, a cell line known to highly express MCT1 and to be sensitive to small molecule MCT inhibitors,^4 are shown in Table 2. Assay protocols follow those described in the literature.^4 Other assays that are not described here but that are standard in the field, such as an assay for competitive inhibition of transport of radiolabeled lactic acid, an MCT substrate, may also be useful in establishing mechanism of action of these compounds.

[3] = system: Raji Burkitt's lymphoma cells; assay: Mouse xenograft study, tumor volume and tumor weight; type: in vivo; details: Raji xenograft in mice, 30 mg/kg daily; for final tumor mass: tumor mass measured at day 29, relative to vehicle; for tumor growth over time (tumor volume): ~20 days of treatment, relative to vehicle
Description: as §1

SMILES	pEC50 [2]	other results
Cc1n[nH]c(C)c1Cc1sc2c(c1-c1ccc(F)c(CO)c1)c(=O)n(C)c(=O)n2CC(C)C [Example 9, 6-((3,5-dimethyl-1H-pyrazol-4-yl)methyl)-5-(4-fluoro-3-(hydroxymethyl)phenyl)-1-isobutyl-3-methylthieno[2,3-d]pyrimidine-2,4(1H,3H)-dione]	≥ 7.70	animal body weight [1]: maintained their body weight; final tumor mass [3]: significant reduction in final tumor mass; tumor growth over time (tumor volume) [3]: significant reduction of tumor growth rate
Cc1n[nH]c(C)c1Cc1sc2c(c1-c1ccc(F)c(CO)c1F)c(=O)n(C1CC1)c(=O)n2CC(C)C [Example 21, 3-cyclopropyl-5-(2,4-difluoro-3-(hydroxymethyl)phenyl)-6-((3,5-dimethyl-1H-pyrazol-4-yl)methyl)-1-isobutylthieno[2,3-d]pyrimidine-2,4(1H,3H)-dione]	≥ 7.70	animal body weight [1]: maintained their body weight; final tumor mass ([3]; listed as SR-13779): significant reduction in final tumor mass; also recorded: more pronounced effect; tumor growth over time (tumor volume) [3]: effectively blocked tumor growth
CC(C)Cc1nn(C)c(=O)c2c(-c3cccc(C(C)O)c3)n(Cc3ccc(-c4ccccc4)cc3)cc12 (stereo not shown) [Example 42, 6-([1,1′-biphenyl]-4-ylmethyl)-7-(3-(1-hydroxyethyl)phenyl)-4-isobutyl-2-methyl-2,6-dihydro-1H-pyrrolo[3,4-d]pyridazin-1-one]	5.00 to 6.00	
Cc1n[nH]c(C)c1Cn1cc2c(CC(C)C)nn(C)c(=O)c2c1-c1cccc(CO)c1 [Example 43, 6-((3,5-dimethyl-1H-pyrazol-4-yl)methyl)-7-(3-(hydroxymethyl)phenyl)-4-isobutyl-2-methyl-2,6-dihydro-1H-pyrrolo[3,4-d]pyridazin-1-one]	6.30	
Cc1n[nH]c(C)c1Cn1cc2c(CC(C)C)nn(C)c(=O)c2c1-c1cc(CO)ccc1F [Example 44, 6-((3,5-dimethyl-1H-pyrazol-4-yl)methyl)-7-(2-fluoro-5-(hydroxymethyl)phenyl)-4-isobutyl-2-methyl-2,6-dihydro-1H-pyrrolo[3,4-d]pyridazin-1-one]	6.70	
Cc1n[nH]c(C)c1Cn1cc2c(CC(C)C)nn(C)c(=O)c2c1-c1cccc(C(O)C(F)(F)F)c1 (stereo not shown) [Example 45, 6-((3,5-dimethyl-1H-pyrazol-4-yl)methyl)-4-isobutyl-2-methyl-7-(3-(2,2,2-trifluoro-1-hydroxyethyl)phenyl)-2,6-dihydro-1H-pyrrolo[3,4-d]pyridazin-1-one]	≥ 7.70	
CC(C)Cc1nn(C)c(=O)c2c(-c3cccc(CO)c3)n(Cc3cc(Cl)nc4ccccc34)cc12 [Example 46, 6-((2-chloroquinolin-4-yl)methyl)-7-(3-(hydroxymethyl)phenyl)-4-isobutyl-2-methyl-2,6-dihydro-1H-pyrrolo[3,4-d]pyridazin-1-one]	5.00 to 6.00	
CC(C)Cc1nn(C)c(=O)c2c(-c3cccc(CO)c3)n(Cc3cnc(Cl)c4ccccc34)cc12 [Example 47, 6-((1-chloroisoquinolin-4-yl)methyl)-7-(3-(hydroxymethyl)phenyl)-4-isobutyl-2-methyl-2,6-dihydro-1H-pyrrolo[3,4-d]pyridazin-1-one]	5.00 to 6.00	
CC(C)Cc1nn(C)c(=O)c2c(-c3cccc(CO)c3)n(CCOc3ccccc3Cl)cc12 [Example 48, 6-(2-(2-chlorophenoxy)ethyl)-7-(3-(hydroxymethyl)phenyl)-4-isobutyl-2-methyl-2,6-dihydro-1H-pyrrolo[3,4-d]pyridazin-1-one]	5.00 to 6.00	
CC(C)Cc1nn(C)c(=O)c2c(-c3cccc(CO)c3)n(Cc3cc(NCCCCCN)nc4ccccc34)cc12 [Example 49, 6-((2-((5-aminopentyl)amino)quinolin-4-yl)methyl)-7-(3-(hydroxymethyl)phenyl)-4-isobutyl-2-methyl-2,6-dihydro-1H-pyrrolo[3,4-d]pyridazin-1-one]	5.00 to 6.00	
